Like-named read-outs stand apart in the source and are kept apart here.
Legend:
MDA-MB-231 (2LMP) cells = test: Cell growth of MDA-MB-231 (2LMP) cells (WST); assay type: cell-based; settings: Homo sapiens, read-out: IC50 of cell growth inhibition
human Bcl-xL = human Bcl-xL (Homo sapiens, UniProt Q07817); test: Fluorescence polarization in vitro Bcl-xL binding assay; settings: displacement of Flu-Bak peptide
Source text: For determination of the binding affinity to Bcl-xL protein a human Bcl-xL recombinant His-tagged protein without the C-terminus hydrophobic tail and the Bak-16mer BH3 peptide labeled with 6-carboxyfluorescein succinimidyl ester (FAM) were used.

Bcl-2 = Bcl-2 (Homo sapiens, UniProt P10415); test: Fluorescence polarization in vitro Bcl-2 binding assay
Method: Bcl-2 used in this assay is a recombinant His-fused soluble protein. […] Inc., Research Triangle Park, N.C.). […] The unlabeled Bid peptide is used as the positive control. The Ki values were calculated using our developed equation for FP assay (Nikolovska-Coleska et al., Anal. Biochem., 2004, in press). The program for calculating a Ki value is available free of charge via the Internet at http://sw16.im.med.umich.edu/software/calc_ki/.

[1] = Body weight of xenograft mice (Example 9); assay type: in vivo; settings: doses as in Example 9
Method: To monitor toxicity, animal body weights were measured and plotted in FIG. 10.

PC-3 xenograft = settings: for Complete tumor regression: tumors regressed/total
Method: The tumor sizes were measured 2 times a week and calculated as: Tumor Volume=(A×B^2)/2 where A and B are the tumor length and width (in mm), respectively.

MDA-231 cells = test: Cell survival with CDDP and TW-37 alone or in combination; assay type: cell-based, human
Source text: CDDP is a DNA damaging agent and can effectively induce apoptosis in MDA-231 breasted cancer cells and is also a clinically used chemotherapeutic drug for cancer.

[2] = test system: PrEC (human normal prostate epithelial cells); test: Caspase-3 activation in PrEC cells (flow cytometry); assay type: cell-based; settings: 48 hours
Method: (§1) The cells were analyzed by flow cytometry in the red channel and the results are shown as percent of cells having active caspase-3 (FIG. 5).

PC-3 cells [3] = test: Caspase-3 activation in PC-3 cells (flow cytometry); assay type: cell-based, human; settings: 5 μM, 48 hours
Method: as §1

[4] = test system: LnCap, PC-3, DU145c, 2LMP and MCF-10A cell lines; test: Inhibition of cell growth in human cancer cell lines (MTT); assay type: cell-based; settings: 120 h, each of LnCap, 5 days
Method: The cells were then incubated at 37° C. with 5% CO2 for 5 days, followed by detection of cell viability with MTT. Untreated cells were used as 100% growth.

PC-3 cells [5] = test: Apoptosis by Annexin V-FITC staining and flow cytometry; assay type: cell-based, human; settings: 2.5 μM, 45 hours
in vivo = settings: female, Balb/c, mouse, iv
PC-3 tumor = test: PC-3 xenograft tumor growth, single agents (Example 8); assay type: in vivo, NCr-nu male nude mice
Method: TAXOTERE (TXT) and cisplatin (CDDP) were used as positive controls. For the PC-3 tumor model, 5×10^6 PC-3 cells were injected into the flanks of NCr-nu male nude mice on both sides. The quarter-MTD and half-MTD doses, i.e., 20 and 40 mg/kg, i.v. q.d.×5 for 3 weeks was tested.

Chain of human Bcl-xL (Q07817 1-209 limits assumed): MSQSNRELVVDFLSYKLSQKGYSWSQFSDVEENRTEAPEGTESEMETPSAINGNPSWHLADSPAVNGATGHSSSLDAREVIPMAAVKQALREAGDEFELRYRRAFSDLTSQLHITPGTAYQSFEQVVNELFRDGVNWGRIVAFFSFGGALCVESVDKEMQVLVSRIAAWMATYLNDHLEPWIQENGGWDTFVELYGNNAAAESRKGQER
Chain of Bcl-2 (P10415 92-205 limits assumed): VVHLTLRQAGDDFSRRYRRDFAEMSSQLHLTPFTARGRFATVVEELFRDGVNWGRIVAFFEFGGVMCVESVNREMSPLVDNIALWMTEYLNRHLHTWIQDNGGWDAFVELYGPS

SMILES | IC50 (MDA-MB-231 (2LMP) cells) [µM] | IC50 (human Bcl-xL) [µM] | IC50 (Bcl-2) [µM] | further results
CC(=O)O[C@@]12CO[C@@H]1C[C@H](O)[C@@]1(C)C(=O)[C@H](O)C3=C(C)[C@@H](OC(=O)[C@H](O)[C@@H](NC(=O)OC(C)(C)C)c4ccccc4)C[C@@](O)([C@@H](OC(=O)c4ccccc4)[C@H]21)C3(C)C [TAXOTERE, (2R,3S)-N-carboxy-3-phenylisoserine, N-tert-butyl ester, 13-ester with 5b-20-epoxy-12a,4,7b,10b,13a-hexahydroxytax-11-en-9-one 4-acetate 2-benzoate, trihydrate] | – | – | – | body weight during treatment [1]: reversible body weight loss; T-C (days) tumor growth delay (PC-3 xenograft; TXT 7.5 mg/kg): 30 days; T/C (%) tumor growth inhibition (PC-3 xenograft; TXT 7.5 mg/kg): 55.1%; activity under the NCI criteria (T/C<42%) (PC-3 xenograft; TXT 7.5 mg/kg): is not; Complete tumor regression (PC-3 xenograft; TXT 7.5 mg/kg): 0/10; T-C (days) tumor growth delay (PC-3 xenograft; TXT 11 mg/kg): 32 days; T/C (%) tumor growth inhibition (PC-3 xenograft; TXT 11 mg/kg): 32.1%; activity under the NCI criteria (T/C<42%) (PC-3 xenograft; TXT 11 mg/kg): significantly active; Complete tumor regression (PC-3 xenograft; TXT 11 mg/kg): 0/10
CCCCCCCCCCC(=O)c1cc(C(C)C)c(O)c(O)c1O [TM-106] | 0.1 to 20 | > 1 | > 1 | –
CCCCCCCCCCC(=O)c1cc(Cc2ccccc2)c(O)c(O)c1O [TM-122] | 0.1 to 20 | > 1 | ≤ 1 | –
Cc1ccc(Cc2ccc(Cc3cc(CCCc4ccccc4)c(O)c(O)c3O)cc2)cc1 [TM-133] | 0.1 to 20 | > 1 | – | –
CCCCCCCCCCCc1cc(Cc2ccccc2)c(O)c(O)c1O [TM-121] | 0.1 to 20 | > 1 | ≤ 1 | –
CCCCCCCCCCCc1cc(C(C)C)c(O)c(O)c1O [TM-105] | 0.1 to 20 | > 1 | > 1 | –
CCCCCCCCCCCc1cc(CC2CCCCC2)c(O)c(O)c1O [TM-129] | 0.1 to 20 | > 1 | > 1 | –
CC(C)c1ccccc1Cc1cc(C(=O)Nc2ccc(S(=O)(=O)c3ccccc3C(C)(C)C)cc2)c(O)c(O)c1O [TW-37, N-[(2-tert-Butyl-benzenesulfonyl)-phenyl]-2,3,4-trihydroxy-5-(2-isopropyl-benyl)-benzamide] | – | – | ≤ 1 | effect on CDDP induced cell death (MDA-231 cells; 0.2 μM or 0.3 μM TW-37, 42 hours): enhanced the CDDP induced cell death; effect on caspase-3 activation in normal prostate epithelial cells [2]: no effect; cells having activated caspase-3 (PC-3 cells [3]): about 60%; IC50 [4]: 1 to 5 µM; apoptotic cells (PC-3 cells [5]): about 35%; body weight during treatment [1]: no obvious body weight loss; MTD at 3 weeks (in vivo): 80 mg/kg; potency on tumor growth compared with TAXOTERE (PC-3 tumor; 40 mg/kg TW-37 vs TXT 7.5 mg/kg i.v. once a week): as potent as TAXOTERE; inhibition of tumor growth in vivo (PC-3 tumor; 20 and 40 mg/kg i.v. q.d.5×3 weeks): significantly inhibiting tumor growth in vivo; T-C (days) tumor growth delay (PC-3 xenograft; TW-37 40 mg/kg): 37 days; activity under the NCI criteria (T/C<42%) (PC-3 xenograft; TW-37 40 mg/kg): significantly active; T/C (%) tumor growth inhibition (PC-3 xenograft; TW-37 40 mg/kg i.v. q.d.5×3 weeks): 34.5%; tumor growth compared to control (PC-3 xenograft; TW-37 40 mg/kg, p<0.001, two-way ANOVA, n=10): significantly inhibited tumor growth; Complete tumor regression (PC-3 xenograft; TW-37 40 mg/kg): 0/10
O=C(c1ccc(Oc2ccccc2)cc1)c1cc(C(=O)c2ccc(-c3ccccc3)cc2)c(O)c(O)c1O [TM-171] | 0.1 to 20 | ≤ 1 | – | –
Oc1c(Cc2ccccc2)cc(Cc2ccc(-c3ccccc3)cc2)c(O)c1O [TM-142] | 0.1 to 20 | > 1 | > 1 | –
N.N.[Cl][Pt][Cl] [cisplatin, Cisplatin, reference compound] | – | – | – | IC50 (MDA-231 cells; CDDP alone, 42 hours): ~0.75 µM
Oc1cccc(Cc2ccc(Cc3cc(CCCC4CCCCC4)c(O)c(O)c3O)cc2)c1O [TM-136] | 0.1 to 20 | – | – | –

The next lines start with results.

IC50 (MDA-MB-231 (2LMP) cells) [µM] | IC50 (human Bcl-xL) [µM] | IC50 (Bcl-2) [µM] | SMILES | further results
0.1 to 20 | > 1 | > 1 | CC(C)c1cc(CCc2ccc3ccccc3c2)c(O)c(O)c1O [TM-107] | –
0.1 to 20 | > 1 | – | O=C(c1ccc(Oc2ccccc2)cc1)c1cc(-c2cccc3ccccc23)c(O)c(O)c1O [TM-165] | –
0.1 to 20 | > 1 | – | O=C(c1ccc(Oc2ccccc2)cc1)c1cc(-c2ccc3ccccc3c2)c(O)c(O)c1O [TM-167] | –
0.1 to 20 | > 1 | – | O=C(c1ccc(Oc2ccccc2)cc1)c1cc(Cc2ccccc2)c(O)c(O)c1O [TM-140] | –
0.1 to 20 | > 1 | – | Oc1c(Cc2ccccc2)cc(Cc2ccc(Oc3ccccc3)cc2)c(O)c1O [TM-141] | –
0.1 to 20 | > 1 | > 1 | CC(C)c1cc(C(=O)Cc2ccc3ccccc3c2)c(O)c(O)c1O [TM-108] | –
0.1 to 20 | – | – | Cc1cc(C(=O)c2cc(Cc3ccccc3)c(O)c(O)c2O)c(C(C)C)cc1Oc1ccc([N+](=O)[O-])c(C(F)(F)F)c1 [TM-149] | –
> 20 | – | – | Cc1cc(C(=O)c2cc(Cc3ccccc3)c(O)c(O)c2O)c(C(C)C)cc1O [TM-143] | –
0.1 to 20 | > 1 | – | O=C(c1ccc(Oc2ccccc2)cc1)c1cc(C(=O)c2ccc3ccccc3c2)c(O)c(O)c1O [TM-169] | –

Source: US8557812B2, “Small molecule inhibitors of anti-apoptotic BCL-2 family members and the uses thereof” (The Regents of the University of Michigan, priority 2004, dated 2013)
